Patent publication US8455495B2, “Pyridazino-pyridinone compounds and methods of use” (Amgen Inc., priority 2008, dated 2013)
Where two headings read alike, the source gives them in different places.

Assays:
recombinant human p38α = recombinant human p38α (Homo sapiens, UniProt Q16539); experiment: Purified and activated recombinant human p38α HTRF assay; format: biochemical; settings: 1 nM p38α, 50 μM ATP, GST-ATF2 substrate, read-out: p38a IC50
Protocol: Purified and Activated Recombinant Human p38α Assay Kinase Reaction Buffer: […] HTRF Detection Buffer: […] Serial Dilution of Compounds: […] Columns 6 and 12 (HI controls and LO controls respectively) in the drug plate were reserved as controls and contained only DMSO. Kinase Reaction: […] See table below for actual concentrations. In the absence of substrate, the background was measured as LO control. […] Assay Reagent Concentrations: […] HTRF Detection: […] After 60 minutes incubation at room temperature, the assay plate was read in a Discovery Plate Reader. The wells were excited with coherent 320 nm light and the ratio of delayed ([…] post excitation) emissions at […] (native europium fluorescence) and 665 nm (europium fluorescence transferred to allophycocyanin-an index of substrate phosphorylation) was determined (Park et al, 1999). Data Analysis: […] Data (consisting of POC and inhibitor concentration in μM) was fitted to a 4-parameter equation ([…]))), where A is the minimum y (POC) value, B is the maximum y (POC), C is the x (compound concentration) at the point of inflection and D is the slope factor, using a Levenburg-Marquardt non-linear regression algorithm. The inhibition constant (Ki) of the inhibitor was estimated from the IC50 (compound concentration at the point of inflection C) using the Cheng-Prussof equation: […] All results were expressed as the mean±the standard error of the mean. Data acquisition and non-linear regression algorithms were performed using Activity Base v5.2 and XL-fit software v4.1 respectively. All data was archived using Activity Base v5.2 software.

[1] = test system: production of IL-1β, IL-6, and TNF-α by PBMC activated with LPS; experiment: Lipopolysaccharide-activated PBMC cytokine production assay; format: cell-based; settings: Homo sapiens, read-out: IC50 in PBMC cytokine production assay
Protocol: Lipopolysaccharide-Activated Pbmc Cytokine Production Assay
Test compounds were evaluated in vitro for the ability to inhibit the production of IL-1β, IL-6, and TNF-α by PBMC activated with bacterial lipopolysaccharide (LPS). Fresh leukocytes were obtained from a local blood bank, and peripheral blood mononuclear cells (PBMCs) were isolated by density gradient centrifugation on Ficol-Paque Plus (Pharmacia).
Preparation of Test Compound Stock Solutions
All reagents were prepared in RPMI 1640+10% v/v human AB serum+1× Pens/Strep/Glu (assay medium). Test compounds were dissolved in 100% DMSO and serially diluted in 96-well polypropylene round bottom micro titer plates (drug plate). Serial dilutions were then diluted 1:250 into assay medium to a 4× working concentration. Compound serial dilutions were half-log, 10 point titrations with a final starting concentration of 1 μM.
Treatment of Cells with Test Compounds and Activation with Lipopolysaccharide
LPS was prepared to a 4× concentration in assay medium. 100 μl of PBMC (1×10^6 cells/ml) were plated in a 96-well polystyrene flat bottom micro titer tissue culture plate and incubated with 50 μl of 4× compound serial dilution for 1 hour at 37° C., 5% CO2 in a tissue culture incubator. 50 μl 4×LPS or control was added and the plates were incubated at 37° C., 5% CO2 in a tissue culture incubator for 18 hours. The final DMSO concentration was 0.1%. The total volume was 200 μL. The final LPS concentration was 100 ng/mL. After 18 hours culture supernatants were removed and IL-1β, IL-6, and TNF-α presence in the supernatants was quantified using MSD ECL based technology.
20 μL of culture supernatant were added to MSD plates, and incubated for one hour at room temperature. 20 μL of detection antibody diluted in antibody diluent (1 μg/mL), and 110 μL of 2× Read Buffer P was added, and incubated for one hour at RT. Electrochemiluminescence was measured using the SECTOR HTS Imager (MSD, Gaithersburg, Md.).
Compound IC50 values were calculated as follows: The proportion of cytokine production in the presence of compound compared to the cytokine production in the presence of the DMSO vehicle alone (Hi control) was calculated using the formula: Percent Control (POC)=(compound−average Lo)/(average Hi−average Lo)*100.

[2] = test system: TNF-α production by LPS-activated THP1 cells; experiment: Lipopolysaccharide-activated THP1 cell TNF production assay; format: cell-based; settings: Homo sapiens, read-out: IC50 in THP-1 cellular TNF production assay
Protocol: Lipopolysaccharide-Activated THP1 Cell TNF Production Assay
THP1 cells were resuspended in fresh THP1 media (RPMI 1640, 10% heat-inactivated FBS, 1×PGS, 1×NEAA, plus 30 μM βME) at a concentration of 1.5×10^6 cells per mL. One hundred microliters of cells per well were plated in a polystyrene 96-well tissue culture plate. 1.5 micrograms per mL of bacterial LPS was prepared in THP1 media and transferred to the first 11 columns of a 96-well polypropylene plate. Column 12 contained only THP1 media for the LO control. Compounds were dissolved in 100% DMSO and serially diluted 3 fold in a polypropylene 96-well microtiter plate (drug plate). Columns 6 and 12 were reserved as controls (HI controls and LO controls respectively) and contained only DMSO. 10 μL of LPS followed by one microliter of inhibitor compound from the drug plate was transferred to the cell plate. The treated cells were induced to synthesize and secrete TNF-α in a 37° C. humidified incubator with 5% CO2 for 3 hours. Fifty microliters of conditioned media was transferred to a 96-well MULTI-ARRAY™ 96-well small spot plate—custom coated with MAB610 containing 100 μL of 2× Read Buffer P supplemented with 0.34 nM AF210NA polyclonal Ab labeled with ruthenium (MSD—Sulfo-TAG™—NHS ester). After an overnight incubation at room temperature with shaking, the reaction was read on the Sector Imager™ 6000. […] The amount of secreted TNF-α in the presence of test compounds compared with that in the presence of DMSO vehicle alone (HI control) was calculated using the formula: % control (POC)=(cpd−average LO)/(average HI−averageLO)*100. Data (consisting of POC and inhibitor concentration in μM) was fitted to a 4-parameter equation (y=A+((B−A)/(1+((x/C)^D))), where A is the minimum y (POC) value, B is the maximum y (POC), C is the x (cpd concentration) at the point of inflection and D is the slope factor) using a Levenburg-Marquardt non-linear regression algorithm.

[3] = test system: LPS-induced TNF-α production; experiment: Inhibition of LPS-induced TNF-α production in rats; format: in vivo; settings: Rattus norvegicus, read-out: ED50, inhibition of LPS-induced TNF-α production
Protocol: Inhibition of LPS-Induced TNF-α Production Rats
LPS was diluted in PBS (100 μg per rat). Rats (n=6) were pretreated with vehicle or compound (0.03, 0.1, 0.3 and 1.0 mg/kg, PO) 60 minutes prior to the injection of LPS (100 μg per rat/IV, tail vein). Blood was harvested via decapitation 90 minutes following the administration of LPS. Blood was centrifuged at 12,000 rpm for 12 minutes to obtain plasma. Plasma samples were stored at −80 C. TNF-α levels were determined by ELISA for treatment groups that received LPS. Rat TNF-α levels were analyzed using rat TNF-α CytoSet kit from Biosource International. ELISA was completed according to the manufacturer's instructions. The concentration of TNF-α was interpolated from absorbance using the standard curve generated. For each individual sample, the TNF value from the dilution series that fell in the most linear portion of the standard curve was chosen and used for data analysis. The limit of quantitation of the ELISA was 1,000 pg/mL.

[4] = test system: collagen-induced arthritis; experiment: Collagen-induced arthritis (CIA) model in rats; format: in vivo; settings: Rattus norvegicus, 168 h, read-out: ED50 in rat CIA model
Protocol: Collagen-induced Arthritis (CIA) Model in Rats
Porcine type II collagen (10 mg) was dissolved in 0.1N acetic acid (5 mL) two days prior to use on a rotating plate in the refrigerator. Subsequently, collagen was emulsified 1:1 with Freund's incomplete adjuvant using an emulsification needle and glass syringes yielding a final concentration of 1 mg/mL.
Disease was induced in each animal by intradermal injection of emulsified collagen in IFA at 10 different sites (100 μL per site) over the back. The clinical onset of arthritis varied between days 10 to 12 as indicated by hind paw swelling and ambulatory difficulties. At onset (defined as Day 0), rats were randomized to treatment groups and therapy was initiated with drug or vehicle control as noted in table above. Rats were treated for 7 days and were sacrificed on Day 8.

[5] = test system: TNF-α induced IL-8 in 50% human whole blood; experiment: Inhibition of TNF-α induced IL-8 in 50% human whole blood; format: cell-based
Protocol: Inhibition of TNF-α Induced IL-8 in 50% Human Whole Blood
Test compounds were evaluated in vitro for the ability to inhibit the production of secreted IL-8 by whole blood activated with TNF-α. Fresh human whole blood was obtained from healthy, non-medicated volunteers in sodium heparin tubes.
Compound Dilution—Assay Procedure
Test compounds are serially diluted 1:3 in DMSO and then diluted 1:250 into R10 (RPMI 1640, 10% human serum AB, 1× pen/strep/glutamine) to the 4× working concentration to be used in the assay. 100 ul heparinized whole blood is plated into wells of 96 well flat bottom plates. 50 ul of either 4× compound or DMSO control (Final DMSO concentration is 0.1%) are added to the appropriate wells. Plates are incubated for 1 hour at 37 degrees Celsius. 50 ul of 4×TNF-α (4 nM TNF-α, for a final concentration of 1 nM) or control (media alone) is added to the appropriate wells (Total volume=200 ul). Plates are incubated overnight (16-18 hours). 100 ul of supernatant is collected and stored in 96-well round bottom polypropylene plates at −80 degrees Celsius or assayed immediately for IL-8.
Cytokines are measured on antibody (Ab) sandwich ECL based 96-well detection plates. 20 ul of supernatant are added to plate and plate is sealed and shaken at RT for 1 hour. 130 ul of detection Ab cocktail is added and plates are sealed and shaken for 1 hour in the dark at RT. Plates are read on MSD Sector HTS instrument. Data are analyzed and IC50 values generated using Activity Base and X1-fit programs.

[6] = TNF-α (1 nM) induced IL-8, 50% human whole blood, 16-18 h, read-out: WB TNF/IL8 IC50
[7] = THP-1, THP1 cells, LPS, 3 hours

Sequence of recombinant human p38α (Q16539 whole entry): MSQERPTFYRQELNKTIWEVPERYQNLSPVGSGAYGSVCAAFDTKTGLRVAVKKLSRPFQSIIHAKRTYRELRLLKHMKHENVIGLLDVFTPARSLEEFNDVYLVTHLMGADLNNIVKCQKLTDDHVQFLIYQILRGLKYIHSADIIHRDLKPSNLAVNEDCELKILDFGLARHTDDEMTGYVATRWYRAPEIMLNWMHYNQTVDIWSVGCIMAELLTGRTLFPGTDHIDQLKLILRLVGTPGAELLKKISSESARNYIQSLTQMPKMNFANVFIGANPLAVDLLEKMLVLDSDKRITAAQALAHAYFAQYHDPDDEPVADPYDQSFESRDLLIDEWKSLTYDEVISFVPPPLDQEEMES

| SMILES | IC50 (recombinant human p38α) | IC50 ([1]; 18 h) | IC50 ([2]; THP-1, 3 h) | ED50 [3] | ED50 [4] | IC50 [5, 6] | IC50 ([1]; LPS 100 ng/mL, 18 hours) | IC50 [2, 7] | IC50 ([5]; read-out: WB TNF/IL8 IC50, TNF-α (1 nM) induced IL-8, 50% human whole blood, 16-18 h) |
| --- | --- | --- | --- | --- | --- | --- | --- | --- | --- |
| Cc1c(F)cc(C(=O)NC2CC2)cc1-c1cc2cnnc(-c3ccc(F)cc3F)c2n(C)c1=O [Example 3, N-cyclopropyl-3-(8-(2,4-difluorophenyl)-1-methyl-2-oxo-1,2-dihydropyrido[3,2-d]pyridazin-3-yl)-5-fluoro-4-methylbenzamide] | 1.7 nM | ≤ 1000 nM | ≤ 1000 nM | 0.04 mg/kg | – | – | – | – | – |
| Cc1ccc(C(=O)NC2CC2)cc1-c1cc2cnnc(-c3ccc(F)cc3F)c2n(C)c1=O [Example 1, N-cyclopropyl-3-(8-(2,4-difluorophenyl)-1-methyl-2-oxo-1,2-dihydropyrido[3,2-d]pyridazin-3-yl)-4-methylbenzamide] | 2.3 nM | ≤ 1000 nM | ≤ 1000 nM | 0.06 mg/kg | 0.03 mg/kg | – | – | – | – |
| Cc1ccc(C(=O)Nc2nccs2)cc1-c1cc2cnnc(-c3ccc(F)cc3Cl)c2n(C)c1=O [Example 24, 3-(8-(2-chloro-4-fluorophenyl)-1-methyl-2-oxo-1,2-dihydropyrido[2,3-d]pyridazin-3-yl)-4-methyl-N-1,3-thiazol-2-ylbenzamide] | 1 nM | – | – | – | – | 9.3 nM | ≤ 1000 nM | ≤ 1000 nM | – |
| Cc1ccc(C(=O)Nc2ccnn2C)cc1-c1cc2cnnc(-c3ccc(F)cc3F)c2n(C)c1=O [Example 15, 3-(8-(2,4-difluorophenyl)-1-methyl-2-oxo-1,2-dihydropyrido[2,3-d]pyridazin-3-yl)-4-methyl-N-(1-methyl-1H-pyrazol-5-yl)benzamide] | 7.5 nM | – | – | – | – | 4.1 nM | ≤ 1000 nM | ≤ 1000 nM | – |
| Cn1c(=O)c(-c2cc(C(=O)O)ccc2Cl)cc2cnnc(-c3ccc(F)cc3F)c21 [Example 4, 4-chloro-3-(8-(2,4-difluorophenyl)-1-methyl-2-oxo-1,2-dihydropyrido[3,2-d]pyridazin-3-yl)benzoic acid] | > 1000 nM | – | – | – | – | – | – | – | > 2500 nM |
| Cc1ccc(C(=O)NC2(C)CC2)cc1-c1cc2cnnc(-c3ccc(F)cc3Cl)c2n(C)c1=O [Example 20, 3-(8-(2-chloro-4-fluorophenyl)-1-methyl-2-oxo-1,2-dihydropyrido[2,3-d]pyridazin-3-yl)-4-methyl-N-(1-methylcyclopropyl)benzamide] | 4.1 nM | – | – | – | – | 15.6 nM | ≤ 1000 nM | ≤ 1000 nM | – |
| Cc1cc(S(C)(=O)=O)ccc1-c1nncc2cc(-c3cc(C(=O)NC4CC4)cc(F)c3C)c(=O)n(C)c12 [Example 27, N-cyclopropyl-3-fluoro-4-methyl-5-(1-methyl-8-(2-methyl-4-(methylsulfonyl)phenyl)-2-oxo-1,2-dihydropyrido[2,3-d]pyridazin-3-yl)benzamide] | 2.5 nM | – | – | – | – | 3.9 nM | – | – | – |
| Cc1ccc(C(=O)NC2CC2)cc1-c1cc2cnnc(-c3cc(F)ccc3Cl)c2n(C)c1=O [Example 18, 3-(8-(2-chloro-5-fluorophenyl)-1-methyl-2-oxo-1,2-dihydropyrido[2,3-d]pyridazin-3-yl)-N-cyclopropyl-4-methylbenzamide] | 1.7 nM | – | – | – | – | 2.2 nM | ≤ 1000 nM | ≤ 1000 nM | – |
